In assay [1] the test system is AGEs formation. Kind of assay: In vitro inhibitory activity of AGEs formation (bovine serum albumin/glucose). The class given is biochemical. The settings on record: mean ± SD (n = 3). Summed up: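 Bovine serum albumin (10 mg/mL) with 0.2 M glucose in 50 mM PBS, pH 7.4, plus 0.02% sodium azide, was mixed with compound solutions (0.5–1000 μg/mL in DMSO) and held 14 d at 37 °C. AGE fluorescence was read at ex 350/em 420 nm in triplicate. Inhibition was corrected with glucose-free blanks, and IC50 calculated.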

Assay [2] concerns STZ-induced hyperglycemic mice. Also on record: method as in PMID 20040119. The settings on record: 100 mg/kg/day; cited from earlier work.

This is an account of results in paper PMC6211316, “Synthesis and biological evaluation of 3-arylcoumarin derivatives as potential anti-diabetic agents” (Journal of Enzyme Inhibition and Medicinal Chemistry, 2018).

SMILES strings stand for the structures.

Compound `N=C(N)NN` [AG, amino guanidine, reference compound] came in with an IC50 in assay [1] of 270 ± 7.19 µM. Also, the “effect on STZ-induced hyperglycemic mice” value in assay [2] is “no significant effect”.
